Data reported in the NIST ThermoML archive (doi:10.1021/je900974u).

What was measured:
[1] = Crystal
[2] = Molar enthalpy of transition or fusion; details: Crystal; Adiabatic calorimetry
[3] = molar heat capacity at constant pressure; details: 101.33 kPa, Liquid, Vacuum adiabatic calorimetry

CCCCCCCCCCCCCCn1cc[n+](C)c1.O=S(=O)([N-]S(=O)(=O)C(F)(F)F)C(F)(F)F
Details | Molar enthalpy of transition or fusion [kcal/mol] | Triple point temperature [K]
[1] | – | 308.72
[2] | 9.536 | –

[3]
Details | molar heat capacity at constant pressure [J/K/mol]
309.98 K | 896.3
310.38 K | 898
311.13 K | 898.7
312.28 K | 899.5
312.7 K | 900.9
313.43 K | 900.5
314.58 K | 902.3
315.01 K | 903.4
315.73 K | 903.4
316.88 K | 904.2
317.32 K | 905.3
318.04 K | 904
319.19 K | 906.1
319.63 K | 907.1
320.34 K | 907.5
321.49 K | 908.6
321.94 K | 909.6
322.64 K | 909.2
323.79 K | 910.6
324.94 K | 913.1
326.1 K | 913.5
327.25 K | 914.4
328.4 K | 915.1
329.55 K | 915.9
330.69 K | 918.6
331.84 K | 918.3
332.99 K | 919.1
334.14 K | 920.6
335.29 K | 922.4
336.45 K | 923
337.6 K | 924.6
338.75 K | 925.5
339.89 K | 926.2
341.04 K | 927.4
342.19 K | 927.9
343.33 K | 929.9
344.48 K | 930.4
345.62 K | 931.8
346.77 K | 933.1
347.91 K | 933.9
349.06 K | 935.2
350.2 K | 936.7
351.91 K | 939.3
354.21 K | 941.3
356.51 K | 943.4
358.83 K | 945.8
361.14 K | 947.9
363.45 K | 949.8
365.76 K | 951.8
368.07 K | 953.3

CCCC[N+]1(C)CCCC1.O=S(=O)([N-]S(=O)(=O)C(F)(F)F)C(F)(F)F
Details | Molar enthalpy of transition or fusion [kcal/mol] | Triple point temperature [K]
[1] | – | 265.65
[2] | 5.234 | –

[3]
Details | molar heat capacity at constant pressure [J/K/mol]
237.44 K | 546.8
239.5 K | 548
241.39 K | 549
243.28 K | 550.7
245.17 K | 552.2
247.06 K | 553.5
248.95 K | 554.6
250.84 K | 556
252.73 K | 557.3
254.62 K | 558.7
256.51 K | 559.6
258.4 K | 561.5
260.29 K | 562.1
262.04 K | 563.9
262.18 K | 563.5
264.07 K | 565.2
264.1 K | 565.2
265.99 K | 566.6
267.88 K | 567.6
269.77 K | 568.9
271.66 K | 570.2
273.55 K | 571.6
275.44 K | 572.9
277.33 K | 574.2
279.22 K | 575.3
281.11 K | 576.6
283 K | 577.9
284.89 K | 579.2
286.78 K | 580.2
288.67 K | 581.4
290.56 K | 582.8
292.45 K | 584
294.34 K | 585.1
296.23 K | 586.3
298.12 K | 588
300.01 K | 589
301.9 K | 590.6
303.79 K | 591.8
305.68 K | 593
307.57 K | 594.5
309.46 K | 595.6
311.34 K | 596.7
313.23 K | 598.2
315.12 K | 599.6
317.02 K | 600.8
318.92 K | 602.2
320.82 K | 603.4
322.71 K | 604.5
324.61 K | 606.1
326.51 K | 607.5
328.41 K | 608.6
330.31 K | 609.9
332.21 K | 611.4
334.11 K | 612.9
336.01 K | 614.2
337.91 K | 615.4
339.81 K | 616.8
341.72 K | 618.2
343.62 K | 619.5
345.52 K | 621
347.44 K | 622.4
349.34 K | 623.9
351.25 K | 625.2
353.16 K | 626.7
355.06 K | 627.9
356.97 K | 629.2
358.87 K | 630.9
360.78 K | 632.1
362.69 K | 633.7
364.59 K | 635
366.5 K | 636.1
368.4 K | 638
